From patent US9207296B2, “Methods and apparatus for pasadena hyperpolarization” (Huntington Medical Research Institutes, priority 2008, dated 2015)
Several values for one entry are separate records, joined by “and”; a condition that tells them apart may be missing. Equal values may be shown once. Read-outs that look alike come from different tables or passages of the source.

What was measured:
rat brain = conditions: rapid ante-grade injection into common carotid artery, 1 mL, overlaid on 1H MRI
[1] = 13C spin storage followed by refocused INEPT polarization transfer to 1H; format: physicochemical; conditions: for initial 13C polarization: 2.4 mL sample, polarizer at 1.76 mT; for T1 during 13C spin storage: FIG. 20 samples, […] succinate / 2.9 mM TFPP; for 13C polarization after storage: after 70 s (succinate) or 24 s (TFPP), 12° excitation pulse; for 13C polarization after storage / net 1H NMR signal enhancement / final 13C signal enhancement: 4.7 T; for net 1H NMR signal enhancement: after refocused INEPT; for final 13C signal enhancement: after storage; for increase of overall sensitivity by proton detection: factor versus hyperpolarized 13C detection; for polarization transfer efficiency 13C to 1H: refocused INEPT
Excerpt: Specifically, the present subject matter hyperpolarized the ^13C site of two well studied molecules, 1-^13C-succinate-d2 and 2,2,3,3-tetrafluoropropyl 1-^13C-propionate-d3 (TFPP), by […].
Hyperpolarization was then kept on ^13C for 70 s. During this time, the polarized sample was transferred from a low magnetic field polarizer operating at 1.76 mT to 4.7 T animal MR scanner. […] Then the refocused INEPT pulse sequence^10 with τINEPT=34 ms and τrefocus=32 ms (FIG. 19) was used to transfer polarization from ^13C to protons within 1-^13C-succinate-d2 (FIG. 20A and FIG. 20B). […] The delays of the refocused INEPT were τINEPT=20 ms and τrefocus=16 ms.

[2] = T1 decay of hyperpolarization (small angle FID series); format: physicochemical
[3] = for 13C signal enhancement (nascent): at 4.7 T, relative to thermal polarization; for 13C polarization achieved (maximal): best value after calibration
Experimental: A number of strategies have been employed to quantify the extent of hyperpolarization [Association N.E.M. Determination of signal-to-noise ratio (SNR) in diagnostic magnetic resonance imaging. NEMA Standards, Publication MS 1-2001 (2001)]. In the present application, the following convention was applied. The signal enhancement (ηobserved) achieved by hyperpolarization was quantified in respect to the signal of a thermally polarized sample (100% ethanol, 188 mM of natural abundance ^13C at each site (Eq. 7)). The signal intensities were determined by numerical integration (xWINNMR software, Bruker Biospin, Germany)
[formula] (where IHP, Iref, CHP and Cref are integral intensities and molar concentrations of hyperpolarized and reference samples, respectively).
The decay of ^13C polarization caused by longitudinal relaxation (T1) of the hyperpolarized sample during the delivery to the detection system was determined (FIG. 15). This allows for the determination of the nascent signal enhancement (Eq. 8), and nascent level of achieved polarization (Eq. 9).
Unless otherwise indicated, PHP^t=0 and η^t=0 are reported in the work presented, using a ^13C polarization of PBoltzmann=0.00041% or 4.1 ppm at 298K and 4.7 T. T1 values for the […] reagent concerned in calibration and quality assurance (“QA”) were determined directly. A series of small angle (α≈8°) FID experiments was employed to probe the decay of the magnetization of the hyperpolarized agents (small excitation angle approximation, SEA). The T1 values were extracted by the fit of Equation 10 (Eq. 10) to the data points, taking into account the loss of magnetization caused by the excitation pulses.
Delivering hyperpolarized sample and triggered detection in the NMR scanner were further optimized. The polarizer was moved to the in vivo suite, where it was positioned carefully 7.63 m+0.5 cm from a small-animal horizontal bore, high field MRI (4.7T Bruker MRI scanner). An automated system was implemented, whereby the hyperpolarized solution was driven by remaining gas pressure in the reactor, through polyethelene (PE) tubing from the polarizer to an NMR-tube in a dual-tuned ^1H/^13C solenoid coil in the MR scanner; where after a precise interval (33 seconds) acquisition was triggered. The solution was then drained to permit successive experiments without coil repositioning.
Peak amplitude was quantified by comparison with the spectrum of ethanol (FIG. 16), using the equations described herein.

Row | Compound | initial 13C polarization [1] | T1 during 13C spin storage [1] | 13C polarization after storage [1] | net 1H NMR signal enhancement [1] | final 13C signal enhancement [1] | increase of overall sensitivity by proton detection [1] | polarization transfer efficiency 13C to 1H [1] | other results
1 | O=C(O)CCC(=O)O [1-^13C-SUCC-d2,3, 1-^13C-succinate-d2,3] | 10.7% | 105 s | 5.5% | 1,350 fold | 13,500 fold | 6.5 | 41% | distribution of 13C image signal in vivo (rat brain): appeared in the anatomical distribution coincident with the rat brain; T1 of hyperpolarized 13C signal in D2O ([2]; D2O, pH 3, B0=4.7 T, N=4): 40 ± 2 s; T1 of hyperpolarized 13C signal in H2O ([2]; H2O, pH 3, B0=4.7 T, N=3, 1-3 mM SUC, 2.5 mM catalyst): 27 ± 3 s; T1 when buffered to physiological pH ([2]; buffered to pH 7 immediately before detection, preliminary): ~50 s; effect of concentration on level of hyperpolarization ([3]; 1.65-2.89 mM in water, 0.96-2.93 mM in D2O): No effect; 13C signal enhancement at the point of measurement ([3]; 4.7 T, 33 s after production): 15,900 fold; PHP^t=0 average nascent polarization, stated in H2O ([3]; 16 experiments, in H2O before B1 calibration as printed): 15.3 ±1.9%; polarization at the point of measurement in water ([3]; H2O, mean delay 33 s): 5.4 ±1.3%; 13C signal enhancement (nascent) [3]: 49,000 fold and 37,400 ±4,600 fold; 13C signal enhancement (nascent) ([3]; listed as 13C succinate): 47,000 fold; 13C polarization achieved (maximal) ([3]; listed as 1-^13C succinate): 18%; 13C polarization achieved (maximal) ([3]; listed as 13C succinate): 19%
2 | CC[13C](=O)OCCO [HEP, reference compound] | – | – | – | – | – | – | – | T1 decay time in D2O ([2]; D2O, pH 7, B0=4.7 T): 70 s; T1 decay time in H2O ([2]; H2O, pH 7, B0=4.7 T): 50 s
3 | [2H]C([2H])C([2H])[13C](=O)OCC(F)(F)C(F)F (stereo not shown) [TFPP, 2,2,3,3-tetrafluoropropyl 1-^13C-propionate-d3] | 14% | 67 s | 9.5% | 2,930 fold | 23,300 fold | 7.9 | 50% and 51% | –
